In ChEMBL document CHEMBL1938321, “Cu-mediated N-arylation of 1,2,3-triazin-4-ones: synthesis of fused triazinone derivatives as potential inhibitors of chorismate mutase” (Bioorg Med Chem Lett, 2012):

What was measured:
[1] = tested on: Mycobacterium tuberculosis H37Rv; experiment: Inhibition of Mycobacterium tuberculosis H37Rv chorismate mutase expressed in Escherichia coli assessed as inhibition of prephenate formation at 50 uM after 1 to 5 mins by spectrophotometry
[2] = tested on: Mycobacterium tuberculosis H37Rv; experiment: (§1) Inhibition of Mycobacterium tuberculosis H37Rv chorismate mutase expressed in Escherichia coli assessed as inhibition of prephenate formation after 1 to 5 mins by spectrophotometry
[3] = as §1

Compound: O=c1c2ccccc2nnn1-c1ccc2ccccc2c1
- inhibition [1]: 40%

Compound: CCCc1nn(C)c2c(=O)n(-c3ccccc3)nnc12
- inhibition [1]: 10%

Compound: CCCc1nn(C)c2c(=O)n(-c3ccc4ccccc4c3)nnc12
- inhibition [1]: 61%
- inhibition [2]: Dose-dependent effect
- IC50 [3]: 15.1 µM

Compound: CCCc1nn(C)c2c(=O)n(-c3cccc(Cl)c3)nnc12
- inhibition [1]: 30%

Compound: O=c1c2c3c(sc2nnn1-c1ccc(F)cc1)CCCC3
- inhibition [1]: 25%

Compound: O=c1c2c3c(sc2nnn1-c1ccc2ccccc2c1)CCCC3
- inhibition [1]: 37%

Compound: CCCc1nn(C)c2c(=O)n(-c3ccc(F)cc3)nnc12
- inhibition [1]: 24%

Compound: COc1cc(CCNc2c([N+](=O)[O-])cc(C(=O)O)cc2S(N)(=O)=O)cc(OC)c1
- IC50 [3]: < 10 µM

Compound: O=c1c2ccccc2nnn1-c1ccccc1
- inhibition [1]: 12%
